“Also recorded” adds a separate entry of the source.

Data on one compound can be found in patent US20140187430A1, “Compositions and Methods for Identifying Autism Spectrum Disorders” (George Washington University, priority 2010, published 2014).

Assay type in all cases: cell-based, human
Assay [1] concerns BCL-2. The assay can be described thus: qRT-PCR of BCL-2 transcript in LCL after 5-Aza-2-deoxycytidine treatment. Conditions: 5 μM, 48 hours. Here is the method:
(§1) LCL, which were obtained from the Autism Genetic Research Exchange (AGRE; Los Angeles, Calif.) were derived from lymphocytes of autistic and normal siblings and cultured as previously described (Hu et al. (2006) BMC Genomics 7, 118). Demethylating treatments were carried out by incubating cells in culture with 5 μM 5-Aza-2-deoxycytidine (Fluka, St. Louis, Mo.) or vehicle control, DMSO (FisherBioTech, Pittsburgh, Pa.) for 48 hours before harvesting cells.
(§2) Genomic DNA was isolated using the Qiagen DNeasy™ Blood and Tissue Kit (Valencia, Calif.) and used for bisulfite modification for methylation analyses. Total RNA was isolated using TRIzol reagent (Invitrogen, Carlsbad, Calif.) according to the manufacturer's protocol and used for gene expression analyses by quantitative RT-PCR. […]
(§3) Two candidate genes, BCL-2 and RORA, were chosen for quantitative real-time (RT)-PCR analysis to examine the correlation between expression of mRNA transcript and methylation status as predicted by microarray analysis, as well as to examine the effect of 5-Aza-2-deoxycytidine treatment on transcript levels. […] The qPCR reactions (in triplicate) were analyzed on an ABI Prism 7300 Sequence Detection System and transcript levels of BCL-2 and RORA were quantified and normalized to standard curves obtained using universal 18S rRNA primers.

For assay [2], the system named is upstream CpG island region of RORA. The assay can be described thus: Methylation-specific PCR (MSP) of upstream CpG island region of RORA in LCL. Conditions: LCL of autistic individuals; 5 μM, 48 hours. On the procedure: as §1
Two ug of genomic DNA isolated from LCL were treated with sodium bisulfite using the Active Motif MethylDetector kit (Carlsbad, Calif.) according to the manufacturer's specifications. Successful bisulfite treatment and conversion was verified using positive control PCR primers for the p16 (CDKN2A) locus provided in the MethylDetector kit.
For methylation-specific PCR (MSP), 2 sets of primers spanning a region approximately 300 bp upstream of the first exon of RORA (UHNhscpg0014103; chr15:59309160-59309428) were designed according to assumed differences in methylation status (i.e., fully methylated or fully unmethylated). These primers were previously successful in identifying methylation-specific silencing of RORA in several gastric cancer cell lines (Yamashita et al. (2006) Cancer Science 97, 64-71). Bisulfite-modified genomic DNA was used as a template for PCR and PCR products were resolved by agarose gel electrophoresis.

The test system of assay [3] is RORA. The assay can be described thus: qRT-PCR of RORA transcript in LCL after 5-Aza-2-deoxycytidine treatment. Conditions: 5 μM, 48 hours. Here is the method: as §1, §2, §3
Setting [4] is: LCL from the "mild" undiagnosed co-twins.
The mark [5] stands for this setting: LCL of autistic individuals, vs DMSO vehicle.

On to `Nc1ncn([C@H]2C[C@H](O)[C@@H](CO)O2)c(=O)n1` [5-Aza-2-deoxycytidine], for which the “change in BCL-2 expression level with treatment” value in assay [1] (setting [4]) is on record as “no statistically significant increases”. Moreover, the “fold-change in BCL-2 transcript expression following treatment” value in assay [1] (setting [5]) is 1.5 fold. Moreover, the “methylated PCR product of RORA promoter region (MSP) following treatment” value in assay [2] was “absence of methylated product; also recorded: absence of methylation”. Moreover, the “change in RORA expression level with treatment” value in assay [3] (setting [4]) is listed as “no statistically significant increases”. Besides, in assay [3] (setting [5]), the “fold-change in RORA transcript expression following treatment” value was determined as 1.8 fold.
